Results as given in PMC9399641, “Inhibition mechanism of alpha-amylase, a diabetes target, by a steroidal pregnane and pregnane glycosides derived from Gongronema latifolium Benth” (Frontiers in Molecular Biosciences, 2022).
Like-named read-outs stand apart in the source and are kept apart here. Marks after values point to notes of the source that are not given here.

Key:
[1] = target: T1, alpha-amylase from porcine pancreas (Sus scrofa, UniProt P00690); assay: alpha-amylase inhibition assay (DNSA method); assay type: biochemical; conditions: for LogIC50: isolated compounds and acarbose, log of IC50 in uM
T1 sequence (P00690 16-511): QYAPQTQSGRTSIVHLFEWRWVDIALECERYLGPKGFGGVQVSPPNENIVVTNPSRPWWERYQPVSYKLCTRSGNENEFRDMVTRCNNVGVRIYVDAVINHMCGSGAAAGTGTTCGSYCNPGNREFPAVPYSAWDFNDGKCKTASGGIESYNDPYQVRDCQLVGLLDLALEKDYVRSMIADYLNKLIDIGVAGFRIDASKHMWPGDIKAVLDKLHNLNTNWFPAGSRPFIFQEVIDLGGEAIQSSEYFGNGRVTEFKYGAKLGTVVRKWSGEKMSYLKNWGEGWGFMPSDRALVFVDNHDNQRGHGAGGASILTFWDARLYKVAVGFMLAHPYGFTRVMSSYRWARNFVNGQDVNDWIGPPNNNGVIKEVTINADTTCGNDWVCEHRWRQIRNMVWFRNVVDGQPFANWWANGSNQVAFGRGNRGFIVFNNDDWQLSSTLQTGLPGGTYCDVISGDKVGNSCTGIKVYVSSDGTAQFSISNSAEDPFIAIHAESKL
Description: Varying concentrations of the pregnane-rich fractions (40–200 μg/ml) and those of the isolated compounds (10–50 μg/ml) were prepared in DMSO. Briefly, 100 μL of the test substance was reacted with 200 μl of alpha-amylase (alpha-amylase from porcine pancreas, EC 3.2.1.1, type VI, Sigma) and 100 μl of […] phosphate buffer (pH 6.9) of 0.02 M sodium phosphate (pH 6.9). Subsequent to incubation for 20 min, 100 μL of 1% starch substrate was added. Blank controls where the enzyme was replaced with the buffer were also prepared alongside. Following incubation of the reaction mixture for 5 min, 500 μl of dinitrosalicylic acid reagent was mixed with the control and the test. These were kept in a water bath at a boiling temperature for 5 min.
The half-maximal inhibitory concentration (IC50) values were determined by fitting inhibition parameters with standard log inhibitor vs. normalized response models using nonlinear regression as described by [Buchwald (2020)].

albino rats = assay: oral starch tolerance test; assay type: in vivo; conditions: for AUC / PBG / % reduction of AUC / % reduction of PBG: 3.0 g/kg starch; for AUC: blood glucose 0-120 min; for AUC / PBG: mean ± SEM n = 4; for % reduction of AUC / % reduction of PBG: vs control; for blood glucose level: oral, starch-challenged rats
Description: The animal study was reviewed and approved by the University Ethical Review Committee of the University of Ilorin (Protocol Identification Code: UERC/LSC/183). An oral starch tolerance test was carried out as described in a previous study ([Poovitha and […], 2016]). […] After 10 min, the blood glucose level was estimated (0 min), and the rats were orally administered with 3.0 g/kg starch. Then, the blood glucose level was estimated at 30, 60, and 120 min after the administration using a glucometer. Peak blood glucose (PBG) was determined by observing the blood glucose level during the previously mentioned time intervals, and the area under the curve (AUC) was calculated.

Row | Compound | IC50 [1] [µM] | LogIC50 [1] | IC50 ([1]; read-out: IC50) [µM] | PBG (albino rats; 10 mg/kg oral) | % reduction of AUC (albino rats; 10 mg/kg oral) [%] | % reduction of PBG (albino rats; 10 mg/kg oral) [%] | blood glucose level (albino rats; in words) | other results
1 | COC1CC(OC2CCC3(C)C(=CCC4(O)C3C(O)C(O)C3(C)C(C(C)=O)CCC43O)C2)OC(C)C1OC1OC(C)C(O)C(OC)C1O [P3, 3-O-[6-deoxy-3-O-methyl-β-D-allopyranosyl-(1→4)-β-D-oleandropyranosyl]-17β-marsdenin] | 14 | 1.147 |  |  |  |  |  | 
2 | CC(O)[C@H]1CC[C@@]2(O)[C@]1(C)[C@H](O)[C@@H](O)[C@@H]1[C@@]3(C)CC[C@H](O)CC3=CC[C@]12O (some centres unmarked) [P1, marsectohexol] |  | 1.000 | 10 | 2.90 ± 0.10^ab mmol/L | 6.36 | 19.44 | significantly reduced | AUC (albino rats; 10 mg/kg oral): 883.5 ± 19.50 mmol·min/L; AUC (albino rats; 20 mg/kg oral): 699.0 ± 48.0 mmol·min/L; PBG (albino rats; 20 mg/kg oral): 2.15 ± 0.45^b mmol/L; % reduction of AUC (albino rats; 20 mg/kg oral): 25.91%; peak blood glucose (PBG) and area under the curve (AUC) (albino rats; 20 mg/kg oral, after starch loading, in words): significantly reduced; blood glucose level (albino rats; in words, listed as marsectohexol): significant decrease
3 | COC1C(O)C(C)OC(OC2C(O)CC(OC3CCC4(C)C(=CCC5(O)C4C(O)C(O)C4(C)C(C(C)=O)CCC54O)C3)OC2C)C1O [P4, 3-O-[6-deoxy-3-O-methyl-β-D-allopyranosyl-(1→4)-β-D-canaropyranosyl]-17β-marsdenin] |  | 1.137 | 13.7 |  |  |  |  | 
4 | CC=C(C)C(=O)OC1C2C3(C)CCC(OC4CC(OC)C(OC5OC(C)C(O)C(OC)C5O)C(C)O4)CC3=CCC2(O)C2(O)CCC(C(C)=O)C2(C)C1OC(=O)C(C)=CC [P2, 3-O-[6-deoxy-3-O-methyl-β-D-allopyranosyl-(1→14)-β-D-oleandropyranosyl]-11,12-di-O-tigloyl-17β-marsdenin] | 12.1 | 1.083 |  |  |  |  |  | 
5 | C[C@H]1O[C@H](O[C@H]2[C@H](O)[C@@H](O)[C@@H](O[C@H]3[C@H](O)[C@@H](O)C(O)O[C@@H]3CO)O[C@@H]2CO)[C@H](O)[C@@H](O)[C@@H]1N[C@H]1C=C(CO)[C@@H](O)[C@H](O)[C@H]1O (some centres unmarked) [Acarbose, acarbose, reference compound] |  |  |  | 2.85 ± 0.05^ab mmol/L | 7.00 | 20.83 | significant decrease | percentage inhibitory activity on porcine alpha-amylase ([1]; in words, fractions 40–200 μg/ml, compounds 10–50 μg/ml): greatest inhibition effects
